System: crypt cells of the colon of HFA mice
Conditions: DNA chip, colonic crypt cells, 200 mg/kg orally four days
Protocol: The collected colon is opened and intestinal content is cleaned with a sterilized saline solution and put in a cryomold in the longitudinal direction to be embedded as an OCT compound and then it is maintained in a freezer at −80° C. The frozen tissue is cut to have the thickness of 8 μm using a cryotome, put on a glass slide (HistoGene LCM slide, Arcturus) and cleaned using a staing (HistoGene LCM frozen section staing kit, Arcturus) and then a hematoxylin stain is performed and then dehydrated. The stained colonic tissue slide of the dyed mice is put on a laser captured microdissector (PixCell II, Arcturus) and crypt cells are isolated from the colon by a laser.
The amplified aRNA (24 μl) of 10 μg is mixed with random hexamer (5 mg/Ml) of 2 μl to be 24 μl which is heated for 10 minutes at 70° C. The first strand master mix liquid of 26 μl containing Cy3- or Cy5-dUTP (1 mM, respectively) is added to aRNA and reacted for two hours at 37° C. […] After the cDNA is deactivated for three minutes at 98° C., a control target of 25 μl with 2× hybridization buffer of 105 μl (Agilent In situ Hybridization kit) to be instilled on a mouse DNA microarray chip (TwinChip Mouse 7.4K cDNA array, Digital Genomics, Seoul, Korea) and hybridized for 17 hours at 60° C. […] Each fluorescence intensity is obtained by performing a global normalization and measuring the ratio of expressing Cy3- and Cy5- fluorescence with respect to one gene.

Structure (SMILES): O=C(O)c1cn(C2CC2)c2cc(N3CCNCC3)c(F)cc2c1=O [Cip, Ciprofloxacin]
- Ang gene expression in comparison with HFA (FIG. 4a): nearly two or four times
- Casp14 gene expression in comparison with HFA (FIG. 3A): increase the expression of the genes
- Eif2ak3 gene expression in comparison with HFA (FIG. 3A): increase the expression of the genes
- I16 gene expression in comparison with HFA (FIG. 3A): increase the expression of the genes
- Mpp1 gene expression in comparison with HFA (FIG. 4a): prevent genes from expressing themselves more than twice
- Mt1 gene expression in comparison with HFA (FIG. 4a): nearly two or four times
- S1c26a1 gene expression in comparison with HFA (FIG. 4a): prevent genes from expressing themselves more than twice
- Saa3 gene expression in comparison with HFA (FIG. 4a): prevent genes from expressing themselves more than twice
- Spn2a gene expression in comparison with HFA (FIG. 3A): prevent genes from expressing themselves more than twice
- Tegt gene expression in comparison with HFA (FIG. 3A): prevent genes from expressing themselves more than twice

Structure (SMILES): CN(C)[C@@H]1C(=O)C(C(N)=O)=C(O)[C@@]2(O)C(=O)C3=C(O)c4c(O)cccc4[C@@](C)(O)[C@H]3C[C@@H]12 [TC, Tetracycline]
- Ang gene expression in comparison with HFA (FIG. 4a): nearly two or four times
- Casp14 gene expression in comparison with HFA (FIG. 3A): increase the expression of the genes
- Eif2ak3 gene expression in comparison with HFA (FIG. 3A): increase the expression of the genes
- I16 gene expression in comparison with HFA (FIG. 3A): increase the expression of the genes
- Mpp1 gene expression in comparison with HFA (FIG. 4a): prevent genes from expressing themselves more than twice
- Mt1 gene expression in comparison with HFA (FIG. 4a): nearly two or four times
- S1c26a1 gene expression in comparison with HFA (FIG. 4a): prevent genes from expressing themselves more than twice
- Saa3 gene expression in comparison with HFA (FIG. 4a): prevent genes from expressing themselves more than twice
- Spn2a gene expression in comparison with HFA (FIG. 3A): prevent genes from expressing themselves more than twice
- Tegt gene expression in comparison with HFA (FIG. 3A): prevent genes from expressing themselves more than twice

From US20120165223A1 (priority 2006, published 2012)
